Holding throughout (format): cell-based, human
One experiment has as its system MMP-13. Kind of experiment: Western blot of MMP-13 in PMA- or IL-1β-pre-treated SW1353 cells (Example 6). The conditions noted are these: 0.1 μM, 48 h. The procedure:
The cells were then plated on 6-cm dishes at a density of 1×10^6 cells/dish for 24 hours prior to any treatment. At the beginning of the experiment, the cells were pre-treated with 100 ng/mL PMA or 10 ng/mL IL-1β for 24 hours. The cells were then treated 0.1 μM Dexamethasone with, various astragaloside compounds (0.1 μM) or extracts of Astragalus membranaceous (1 μg/mL) at indicated dosages for another 48 hours. For control sample, 0.1% DMSO was used as a negative control for these experiments. The conditioned culture mediums were then centrifuged, 2-fold concentrated and collected for assay of collagens or MMPs secreted into the culture medium.
Western blotting analysis was carried out on both cultured medium and cell lysates, as follows. The cells were washed and lysed in 0.2 mL of lysis buffer (1% NP-40, 50 mM Tris-HCl, pH 7.4, 180 mM NaCl, 1 mM EDTA, 1 mM PMSF, 1 mM NaF, 10 mM Na3VO4) for 30 min at 4° C. After centrifuging at 17500 g for 15 min, the supernatants of cell lysate were also collected. Protein concentration of the samples were measured using the bicinchoninic acid (BCA) protein assay kit according to the manufacturer's protocol (Pierce, Rockford, Ill., USA). Equal amount of protein samples of concentrated conditioned medium (100 μg) or cell lysate supernatants (50 μg) were mixed with an appropriate volume of 4×SDS sampling buffer and separated by 8% SDS-PAGE gel. The protein bands separated in the SDS-PAGE gel were blotted onto a polyvinylidene fluoride (PVDF) membrane. The blotted PVDF membrane was washed twice and blocked in freshly prepared Tris-buffered saline (TBS) containing 0.1% Tween-20 and 7% skim milk (TBST) for 2 hours at room temperature. […] Horseradish peroxidase-conjugated anti-goat antibody was used as secondary antibody. Signals were visualized by an enhanced chemiluminescence kit (Clonetech, Palo Alto, Calif., USA) followed by exposure to X-ray films.

The test system of the next experiment is MMP-1. Kind of experiment: Zymography of MMP-1 from pre-treated SW1353 cells. The conditions noted are these: PMA-pre-treated SW1353; 0.1 μM, 24 h. The protocol:
At the beginning of the experiment, the cells were pre-treated with 100 ng/mL PMA or 10 ng/mL IL-1β for 24 hours. The cells were then treated with 0.1 μM Dexamethasone, various astragaloside compounds (0.1 μM) or extracts of Astragalus membranaceous (1 μg/mL) at indicated dosages for another 24 hours. For control sample, 0.1% DMSO was used as a negative control for these experiments. The conditioned culture mediums were then centrifuged, 2-fold concentrated and collected for assay of collagens or MMPs secreted into the culture medium.
The proteolytic activities of MMPs from SW1353 cells were measured essentially as described previously (Circ Res, 1999; 85:906-911). The cells were lysed in lysis buffer (1% Triton X-100, 50 mM Tris-Cl, pH 7.4, 180 mM NaCl, 1 mM EDTA). The samples were measured for their protein concentration using the bicinchoninic acid (BCA) protein assay kit as described. Samples of concentrated conditioned medium and cell lysates were mixed with non-reducing electrophoresis loading buffer and subjected to electrophoresis under non-reducing conditions. The electrophoresis was carried out on a 10% SDS-PAGE co-polymerized with 2 mg/mL gelatin or casein (Sigma, St. Louis, Mo. USA). For zymographic analysis of pro-MMP-2 and activated MMP-2, the total 20 μg of culture medium were used for electrophoresis. Following electrophoresis, renaturation of the proteins was achieved by incubating the gels twice in 25 g/L Triton X-100 at room temperature for 10 min. Subsequently the gels were incubated in 50 mM Tris-HCl, pH 7.5 containing 0.2 M NaCl, 0.02% Brij35 and 10 mM CaCl2 at 37° C. for 18 hours. After the gels were stained with Coomassie Brilliant Blue R-250 and destained, zones of proteolytic activities became visible as transparent bands in the stained gel. In order to obtain higher sensitivity, the gels were further destained in a solution of 1% Triton X-100 (1 to 2 hours). This procedure increased the signal-to-noise ratio, allowing the visualization of faint gelatinase bands at 92 kDa, 125 kDa and greater than 200 kDa. Zymograms were read using a Molecular Dynamics (Sunnyvale, Calif., USA) computing laser densitometer with Image Quant software.

A further experiment deals with MMP1. Kind of experiment: Western blotting of MMP1 protein expression induced by IL-1β, PMA or TNF-α in SW1353 cells (Example 3). The conditions noted are these: AS4 0.01, 0.1 or 1 μM; PMA 100 ng/mL, IL-1β 10 ng/mL, TNF-α 10 ng/mL, 24 h. The procedure: Western blotting analysis was carried out based on the following procedure. Cells were washed and lysed in 0.2 mL of lysis buffer (1% NP-40, 50 mM Tris-HCl, pH 7.4, 180 mM NaCl, 1 mM EDTA, 1 mM PMSF, 1 mM NaF, 10 mM Na3VO4) for 30 min at 4° C. After centrifugation at 17500 g for 15 min, the supernatants of cell lysate were collected. Protein concentrations of the samples were measured using the bicinchoninic acid (BCA) protein assay kit according to the manufacturer's protocol (Pierce, Rockford, Ill., USA). Equal amounts of protein samples of concentrated conditioned medium (100 μg) or cell lysate supernatants (50 μg) were mixed with an appropriate volume of 4×SDS sampling buffer and separated on a 8% SDS-PAGE gel. The protein bands separated on the SDS-PAGE gel were blotted onto a polyvinylidene fluoride (PVDF) membrane. The blotted PVDF membrane was washed twice and blocked in freshly prepared Tris-buffered saline (TBS) containing 0.1% Tween-20 and 7% skim milk (TBST) for 2 hours at room temperature. The PVDF membrane was then incubated with a primary antibody against MMP1 protein (Santa Cruz Biotechnology, Santa Cruz, Calif.) for 18 hours at 4° C. Horseradish peroxidase-conjugated anti-goat antibody was used as the secondary antibody. Signals were visualized by an enhanced chemiluminescence kit (Clonetech, Palo Alto, Calif., USA) followed by exposure to X-ray films. […]
(Immunoblotting shows a protein as a band on a membrane.)

In the case of `CC(C)(O)[C@@H]1CC[C@](C)([C@H]2[C@@H](O)C[C@@]3(C)[C@@H]4C[C@H](O[C@@H]5O[C@H](CO)[C@@H](O)[C@H](O)[C@H]5O)[C@H]5C(C)(C)[C@@H](O[C@@H]6OC[C@@H](O)[C@H](O)[C@H]6O)CC[C@@]56C[C@@]46CC[C@]23C)O1` [AS4, Astragaloside IV], the “MMP-13, Western blot, relative to Ctrl 1.00” value in the experiment with MMP-13 (IL-1β-pre-treated SW1353 cell extract) stood at 1.10; in the experiment with MMP-13 (IL-1β-pre-treated SW1353 culture medium) it was 0.56; in the experiment on MMP-13 (PMA-pre-treated SW1353 cell extract), 0.79. Also, the “MMP-1, Zymography, relative to Ctrl 1.00” value with MMP-1 came to 0.68. For the same compound, in the experiment with MMP1, the “level of expression of MMP1 protein with different inducers” value is reported as “inhibited”.
